How the values were obtained:
Type in all cases: physicochemical
[1] = Log D (pH 7.4) of the API
Protocol: The hydrochloride salt of the compound of formula (I) was formulated into three (3) oral dose strengths (5, 25, and 125 mg dose [based on free base]). The physicochemical properties of the compound of formula (I), the active pharmaceutical ingredient (API), are summarized in Table 1.

[2] = Solubility of the API in media
Protocol: The solubility of the API was tested. In all media, solubility of the compound is good, namely the maximum tested dose of 125 mg was found soluble in 250 mL of media. […] This characterization may not be accurate for larger doses. Reference is made to Table 2.

[3] = Excipient compatibility study, related substances (unknown RRT)
Protocol: An initial excipient compatibility study was performed.
In the compatibility study, all the samples were evaluated for two (2) primary properties: appearance and related substances.
(close) for 4W with respect to their related substance profile.

[4] = 40° C./75% RH, open glass vial, 4 week

## COc1cc(Nc2nccc(Nc3cccnc3-c3ccccn3)n2)ccc1N1CCN(C)CC1.Cl [API, N2-[3-methoxy-4-(4-methylpiperazin-1yl)phenyl]-N4-[2-(pyridin-2-yl)pyridin 3-yl] pyrimidine-2,4-diamine hydrochloride]
[1]
  logD: 2.66
[2]; 0.1N HCl
  Maximum dose mg solubility in 250 ml: 256 mg
[2]; 0.1N HCl, pH 1.005, simulated gastric fluid
  solubility: 1030 µg/mL
[2]; Water
  Maximum dose mg solubility in 250 ml: 252 mg
[2]; maximum tested dose of 125 mg in 250 mL of media
  Solubility characterization with reference to BCS classification: highly soluble
[2]; pH 4.5 Acetate buffer
  Maximum dose mg solubility in 250 ml: 253 mg
[2]; pH 4.5 acetate buffer, pH 4.508, aqueous buffer
  solubility: 1010 µg/mL
[2]; pH 6.8 Phosphate buffer
  Maximum dose mg solubility in 250 ml: 245 mg
[2]; pH 6.8 phosphate buffer, pH 6.812, aqueous buffer
  solubility: 980 µg/mL
[2]; water, pH 6.213, water
  solubility: 1010 µg/mL
[3]; [4]
  Total (related substances): 0.84%
  Unknown RRT 0.162: 0.11%
  Unknown RRT 0.866: BQL
  Unknown RRT 0.989: BQL
  Unknown RRT 1.046: BQL
  Unknown RRT 1.07: 0.07%
  Unknown RRT 1.08: 0.05%
  Unknown RRT 1.341: 0.2%
  Unknown RRT 1.38: 0.1%
  Unknown RRT 1.549: 0.19%
  Unknown RRT 1.633: 0.12%
[3]; Initial
  Total (related substances): 0.93%
  Unknown RRT 0.162: 0.12%
  Unknown RRT 0.989: BQL
  Unknown RRT 1.046: BQL
  Unknown RRT 1.07: 0.07%
  Unknown RRT 1.08: 0.06%
  Unknown RRT 1.341: 0.27%
  Unknown RRT 1.38: 0.08%
  Unknown RRT 1.549: 0.21%
  Unknown RRT 1.633: 0.12%

— US20240173319A1, “SOLID DOSE PHARMACEUTICAL COMPOSITION” (Sumitomo Pharma Oncology, Inc., priority 2019, published 2024)
